From patent US20240384268A1, “Oligonucleotides” (Hudson Institute of Medical Research, priority 2021, published 2024)
In the oligonucleotide strings, read from the 5' end, every base follows the letter of its sugar. An asterisk marks phosphorothioate; unmarked linkages are phosphodiester. Other units and linkages are bracketed, terminal groups are in braces. A string of capitals states the bases alone. d = 2'-deoxy (DNA)

Molecular target: T1, TLR3 (Homo sapiens, UniProt O15455)
T1 sequence (O15455 24-904): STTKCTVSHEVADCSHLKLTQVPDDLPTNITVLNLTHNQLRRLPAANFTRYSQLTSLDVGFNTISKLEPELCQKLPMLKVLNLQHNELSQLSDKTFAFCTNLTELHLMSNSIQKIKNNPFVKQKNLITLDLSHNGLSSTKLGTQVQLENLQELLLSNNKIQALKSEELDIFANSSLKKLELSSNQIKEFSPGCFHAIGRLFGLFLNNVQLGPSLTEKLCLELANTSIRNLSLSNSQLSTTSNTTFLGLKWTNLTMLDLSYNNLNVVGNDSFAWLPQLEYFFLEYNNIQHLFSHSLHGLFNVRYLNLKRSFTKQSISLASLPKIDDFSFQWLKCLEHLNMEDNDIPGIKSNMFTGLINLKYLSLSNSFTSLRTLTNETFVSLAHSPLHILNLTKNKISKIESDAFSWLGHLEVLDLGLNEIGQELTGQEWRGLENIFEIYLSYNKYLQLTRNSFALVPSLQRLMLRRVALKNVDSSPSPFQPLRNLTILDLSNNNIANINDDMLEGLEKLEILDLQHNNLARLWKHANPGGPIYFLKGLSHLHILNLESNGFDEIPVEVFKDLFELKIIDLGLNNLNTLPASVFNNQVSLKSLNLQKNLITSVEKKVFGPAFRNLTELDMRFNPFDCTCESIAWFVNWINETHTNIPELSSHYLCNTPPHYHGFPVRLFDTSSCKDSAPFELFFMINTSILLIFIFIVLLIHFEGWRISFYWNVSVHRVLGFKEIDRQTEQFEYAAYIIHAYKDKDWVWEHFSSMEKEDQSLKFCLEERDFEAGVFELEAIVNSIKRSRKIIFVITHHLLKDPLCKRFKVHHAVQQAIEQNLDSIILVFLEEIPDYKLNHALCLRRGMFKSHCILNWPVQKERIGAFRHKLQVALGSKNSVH
Assay: HEK-TLR3 NF-κB-luciferase reporter, poly(I:C) stimulation
Assay type: cell-based
Design: host or cells: HEK-Blue hTLR3 (HEK293)
Details: for TLR3 2uM: 3-mers DNA PS 45 min, then 500 ng/ml polyI:C overnight, NF-κB-luciferase normalised to polyI:C only (Ligand 1.000, NT 0.000); for inhibition of polyI:C sensing by TLR3 at 500 nM (in words): 500 nM ASOs/ODNs, poly(I:C) 1 μg/ml

Substance	TLR3 2uM	also measured
dC*dC*dT [CCT]	0.914	
dG*dC*dT [GCT]	0.998	
dT*dT*dC [TTC]	0.928	
dT*dG*dA [TGA]	0.743	
T*G*C* T*T*G* A*C*A* T*C*C* T*G*G* A*G*G* G*G*T* T*G*T (TGCTTGACATCCTGGAGGGGTTGT; DNA, all phosphorothioate, methylation of C not given here) [IRS957, reference compound]		inhibition of polyI:C sensing by TLR3 at 500 nM (in words): blocked polyL:C sensing
dG*dG*dT [GGT]	0.959	
dA*dG*dT [AGT]	0.865	
dT*dC*dA [TCA]	0.792	
T*T*C* A*A*A* T*T*C* A*A*A* T*T*C* A*A*A* T*T*C* A*A*A (dT*dT*dC*dA*dA*dA*dT*dT*dC*dA*dA*dA*dT*dT*dC*dA*dA*dA*dT*dT*dC*dA*dA*dA) [C151, reference compound]		inhibition of polyI:C sensing by TLR3 at 500 nM (in words): only partially reduced polyL:C-dependent TLR3 activation
dT*dG*dT [TGT]	0.884	
dC*dT*dT [CTT]	0.901	
dG*dT*dC [GTC]	0.914	
dC*dG*dT [CGT]	0.755	
dT*dA*dT [TAT]	0.877	
dA*dT*dT [ATT]	1.012	
dT*dA*dG [TAG]	0.769	
dG*dT*dG [GTG]	0.929	
dC*dT*dG [CTG]	0.843	
dT*dT*dG [TTG]	0.990	

Substance	TLR3 2uM	also measured
dG*dT*dA [GTA]	0.818	
dT*dC*dG [TCG]	0.931	
dG*dT*dT [GTT]	1.009	
dT*dC*dC [TCC]	0.868	
dT*dT*dA [TTA]	0.855	
T*G*C* T*T*G* C*A*A* G*C*T* T*G*C* A*A*G* C*A (TGCTTGCAAGCTTGCAAGCA; DNA, all phosphorothioate, methylation of C not given here) [IRS661, reference compound]		inhibition of polyI:C sensing by TLR3 at 500 nM (in words): blocked polyL:C sensing
dA*dT*dC [ATC]	0.834	
dC*dA*dT [CAT]	0.828	
dT*dG*dG [TGG]	0.773	
dC*dT*dC [CTC]	0.911	
dA*dT*dG [ATG]	0.849	
dA*dT*dA [ATA]	0.827	
dA*dA*dT [AAT]	0.877	
dT*dA*dA [TAA]	0.968	
dA*dC*dT [ACT]	0.818	
dT*dA*dC [TAC]	0.704	inhibition of TLR3 sensing by 3-mer DNA PS oligos (2 μM 3-mer DNA PS, 500 ng/ml polyI:C): strongest DNA 3-mer
dG*dA*dT [GAT]	0.864	
dT*dG*dC [TGC]	0.795	
dC*dT*dA [CTA]	0.864	
